SMILES strings stand for the structures. Some results are limits rather than exact numbers.

In test [1] the target is T1, Melanin-concentrating hormone receptor 1 (Homo sapiens, UniProt Q99705). The experiment in a line: Stimulation of IP3-coupled mobilization of calcium in HEK293 cells expressing MCH-R1. Format: functional, cell-based.
For test [2], the target named is T1, Melanin-concentrating hormone receptor 1. The experiment in a line: Displacement of 125I-[Phe13,Tyr19]-MCH from human MCH-R1.
Test [3] addresses T2, Melanin-concentrating hormone receptor 2 (Homo sapiens, UniProt Q969V1). In words: Displacement of 125I-[Phe13,Tyr19]-MCH from human MCH-R2.
Test [4] addresses T2, Melanin-concentrating hormone receptor 2. The experiment in a line: Inhibition of 125I-[Phe13,Tyr19]-MCH binding to human MCH-R2 at 2uM.
Test [5] has as its target T1, Melanin-concentrating hormone receptor 1. In words: Inhibition of 125I-[Phe13,Tyr19]-MCH binding to human MCH-R1. The note with it: concentration not given here.

T1 sequence (Q99705 whole entry): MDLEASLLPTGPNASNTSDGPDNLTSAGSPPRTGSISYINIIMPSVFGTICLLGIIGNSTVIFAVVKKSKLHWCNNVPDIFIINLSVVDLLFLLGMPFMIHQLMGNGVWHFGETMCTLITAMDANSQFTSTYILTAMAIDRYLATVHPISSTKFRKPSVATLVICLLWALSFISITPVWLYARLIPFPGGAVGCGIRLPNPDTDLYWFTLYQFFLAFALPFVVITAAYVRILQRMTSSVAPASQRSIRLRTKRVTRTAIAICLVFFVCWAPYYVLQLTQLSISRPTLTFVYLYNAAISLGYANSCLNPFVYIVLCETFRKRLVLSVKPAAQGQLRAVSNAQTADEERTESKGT
T2 sequence (Q969V1 whole entry): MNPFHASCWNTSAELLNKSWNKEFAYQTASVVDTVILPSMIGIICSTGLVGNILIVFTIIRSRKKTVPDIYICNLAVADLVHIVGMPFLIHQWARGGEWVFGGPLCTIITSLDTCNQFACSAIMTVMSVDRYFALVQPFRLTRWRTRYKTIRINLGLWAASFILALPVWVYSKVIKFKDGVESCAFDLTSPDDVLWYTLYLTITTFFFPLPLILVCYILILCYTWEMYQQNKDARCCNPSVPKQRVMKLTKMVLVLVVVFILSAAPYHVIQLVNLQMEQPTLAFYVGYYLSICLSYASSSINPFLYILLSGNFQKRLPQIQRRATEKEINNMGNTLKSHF

Regarding `CCCc1cc(NC2CCC2)c2cc(NC(=O)/C=C/c3ccc(C(F)(F)F)cc3)ccc2n1`, the EC50 in test [1] is 270 nM. Besides, the figures for the IC50 in test [2] and in test [3] were 18 nM and 960 nM, respectively.

On to `CCCc1cc(O)c2cc(NC(=O)/C=C/c3ccc(C(F)(F)F)cc3)ccc2n1`, for which the inhibition in test [4] and in test [5] was under 50% throughout.

`CCCc1cc(N)c2cc(NC(=O)c3ccccc3)ccc2n1`: the inhibition in test [4] and in test [5] was under 50% in each case.

Regarding `CCCc1cc(N)c2cc(NC(=O)/C=C/c3ccc(-c4ccccc4)cc3)ccc2n1`, the EC50 in test [1] is 118 nM. The inhibition in test [4] is under 50%. Moreover, the half-maximal inhibitory concentration (IC50) in test [2] amounted to 1.1 nM.

Take `Nc1cc(C2CCCC2)nc2ccc(NC(=O)/C=C/c3ccc(C(F)(F)F)cc3)cc12`: in test [1], the EC50 amounted to 68 nM. The compound further gave an inhibition in test [4] of under 50%. The compound further came in with an IC50 in test [2] of 0.8 nM.

As for `CCCc1cc(N)c2cc(NC(=O)NCc3ccc(C(F)(F)F)cc3)ccc2n1`, the EC50 in test [1] was determined as 380 nM. In test [4], this compound had an inhibition of under 50%. The compound also came in with an IC50 in test [2] of 38 nM.

Regarding `CCCc1cc(N)c2cc(NC(=O)c3ccc(-c4ccc(Cl)cc4)cc3)ccc2n1`, in test [1], the half-maximal effective concentration (EC50) came to 75 nM. The compound also came in with an inhibition in test [4] of under 50%. Moreover, the IC50 in test [2] worked out at 0.7 nM.

The EC50 is the concentration that produces a half-maximal response. As usually defined, the IC50 is the midpoint of a concentration-inhibition curve. A high value points to lower potency. For orientation: inhibition means the drop in the measured response relative to a control, in per cent. Low values mean little suppression, high ones strong suppression.
